The values that follow come from publication PMC12208494, “The zinc metalloprotein MigC impacts cell wall biogenesis through interactions with an essential Mur ligase in Acinetobacter baumannii” (PLOS Pathogens, 2025).

This experiment has as its target T1, MurC (Acinetobacter baumannii, UniProt A3M9Y0).
T1 construct: full length, N-terminal 6xHis tag removed by TEV protease, E. coli BL21(DE3)
The experiment in a line: HPLC of UMA formation. Type of experiment: biochemical. The following applies: 200 µM UDP-MurNAc, 1 mM L-alanine, 1 mM ATP, 2 mM MgCl2, pH 7.4, 37 °C.

T1 sequence (A3M9Y0 whole entry): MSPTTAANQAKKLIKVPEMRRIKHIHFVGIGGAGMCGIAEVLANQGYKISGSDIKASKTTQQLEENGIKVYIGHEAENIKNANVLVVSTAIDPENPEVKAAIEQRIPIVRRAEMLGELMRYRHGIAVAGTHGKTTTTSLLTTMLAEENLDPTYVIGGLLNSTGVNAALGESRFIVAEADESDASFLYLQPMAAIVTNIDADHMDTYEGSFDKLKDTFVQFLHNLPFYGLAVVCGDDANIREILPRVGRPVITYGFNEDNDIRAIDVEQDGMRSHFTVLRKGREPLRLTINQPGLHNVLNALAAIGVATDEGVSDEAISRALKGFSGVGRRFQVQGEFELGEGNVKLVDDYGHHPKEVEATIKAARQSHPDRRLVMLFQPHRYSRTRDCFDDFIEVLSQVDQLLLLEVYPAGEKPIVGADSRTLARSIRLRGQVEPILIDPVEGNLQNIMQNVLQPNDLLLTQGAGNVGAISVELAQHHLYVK

On to `CC(=O)N[C@H]1[C@@H](OP(=O)(O)OP(=O)(O)OC[C@H]2O[C@@H](n3ccc(=O)[nH]c3=O)[C@H](O)[C@@H]2O)O[C@H](CO)[C@@H](O)[C@@H]1O[C@H](C)C(=O)O` [UDP-MurNAc], for which the “HPLC of UMA formation” value was “MurC and MurD activity were quantified by measuring MurC product, UMA”.
